The values that follow come from patent publication US20250388542A1, “ANALOGUES OF PENTAMIDINE AND USES THEREFOR” (Auransa Inc., priority 2018, published 2025).

One data set is described as follows: Human microsomal CL rate. In kind it is in vitro ADME. The settings on record: human microsomes.
The next data set concerns SW1271. The experiment in a line: CellTiter-Glo luminescent cell viability assay. It counts as cell-based. How it is done:
(§1) The objective of this study is to investigate potential cell killing effect of Compounds 1-15 on 3 cancer cell lines. 50% inhibition concentration (IC50) was determined for these compounds in various cancer cell lines using CellTiter-Glo™ luminescent cell viability assay at different compound concentrations. Each cell line (e.g., NCI-H209; NCI-H69; and SW1271) was treated with Compounds 1-15 and culture medium contains 0.2% [v/v] DMSO vehicle control. All the cells were cultured in the media supplemented with 10-20% fetal bovine serum at 37° C., 5% CO2 and 95% humidity.
(In general: ATP-based viability assays read luminescence as a measure of living cells.)

The subject of the next data set is NCI-H209. The experiment in a line: CellTiter-Glo luminescent cell viability assay. Conditions: Homo sapiens. In kind it is cell-based. As for the experimental part:
as §1

The next data set relates to NCI-H69. The experiment in a line: CellTiter-Glo luminescent cell viability assay. In kind it is cell-based. Conditions: Homo sapiens. As for the experimental part:
as §1

The subject of the next data set is SK-HEP-1. The data set can be described thus: CellTiter-Glo cell viability, liver cell lines, 8 days. In kind it is cell-based. The settings on record: Homo sapiens, SK-HEP1, SK-HEP-1, Table 5, similar experiment. As for the experimental part:
(§2) The objective of this study is to investigate the effect of Compound 1 on cell viability of various types of liver cancer. Ten (10) different liver cancer cell lines were employed in the study. Each liver cell line shown in Table 4 was treated with Compound 1, pentamidine, as reference control, a standard of care (cisplatin) and culture medium contains 0.2% [v/v] DMSO vehicle control and IC50 values were obtained as described above. The raw data values from the CellTiter-Glo™ cell viability assay expressed in relative luminescence units were normalized to the vehicle for each individual plate, and any reduction in luminescence indicated a decrease in viability (%). The data was analyzed in GraphPad PRISM using a non-linear sigmoidal plot with variable slope (asymmetric four-point linear regression), and an IC50 value for each compound was generated. The experiment tested pentamidine, compound 1, and standard-of-care control Cisplatin in full growth media for 8 days. Cells were initially treated with the test compounds on Day 0, and the cells were then replenished with fresh compound dilutions on Day 3. Pentamidine, Compound 1, and cisplatin were tested at 9 concentration points; 100, 33.33, 11.11, 3.70, 1.23, 0.41, 0.14, 0.05, and 0.02 μM (final DMSO concentration=0.5%). In particular, the IC50 values of pentamidine and Compound 1 were 0.8 and 0.6 μM in Hep3B-luc, respectively.

The test system of another data set is HEP3B2.7-1. The data set is described as above. It counts as cell-based. Conditions: HEP3B2.7-1, Table 5, similar experiment. As for the experimental part: as §2
Data set [1] is described as follows: Pharmacokinetics in liver and tissues after oral administration. In kind it is in vivo, mice. The settings on record: p.o. How it is done:
Compound 1 (20 mg per kg), Compound 5 (10 mg per kg), and pentamidine (20 mg per kg) were tested for their PK. Tissue samples were collected as described above in Example 23. Briefly, blood samples (approximately […]) were collected under light isoflurane anesthesia from retro orbital plexus of mice at 0.5, 1, 3, 8, 48 and 72 hr. Plasma samples were separated by centrifugation at 2,000×g for 6 minutes and stored below −70±10° C. until bioanalysis. Immediately after collection of blood, animals were euthanized using excess CO2 asphyxiation and samples were collected from set of five mice at each time point. Collected tissue samples were immediately dipped and rinsed three times in ice cold PBS (for 5-10 seconds/rinse using ˜5-10 mL fresh PBS in disposable petri dish for each rinse) and dried on blotting paper. Tissue samples were homogenized using ice-cold phosphate buffer saline (pH7.4) and homogenates were stored below −70±10° C. until analysis. Total homogenate volume was three times the tissue weight except for liver samples, total homogenate volume was ten times the liver weight. Bioanalysis process was determined by fit-for-purpose LC-MS/MS method.
Calibration standards were prepared by spiking the test compound into blank plasma. 10 μL of working calibration standard was spiked into 190 μL of blank Mice Plasma or tissue homogenate to generate linearly spiked calibration standards. Calibrator concentrations were 5,000, 2,000, 1,000, 200, 100, 20, 10, 2 and 1 ng/mL. Calibration standard samples were processed along with the test samples. Twenty-five μL aliquots of plasma or tissue homogenate test samples were treated with 100 μL of acetonitrile containing internal standard (500 ng/mL Glipizide). Samples were vortexed for 5 minutes. Samples were centrifuged for 10 minutes at a speed of 4000 rpm at 4° C. Following centrifugation, 100 μL of clear supernatant was transferred in 96-well plates of and analyzed using LC-MS/MS. Chromatographic separation was achieved using a Kintex Polar column (C18, 100×4.6 mm, 5μ) and column oven temperature 45° C. For compound 1 diHCl the mobile phase A was water with 0.1% formic acid in Acetonitrile; mobile phase B was 10 mM ammonium formate. However, the mobile phase for pentamidine and Compound 5 mobile phase A was water with 0.1% formic acid and mobile phase B acetonitrile with 0.1% formic acid.
The gradient program for Compound 1 was as follows: 5% B (1-2.40 min), 90% B (2.60-3.00 min), and the initial for B was 90%. The retention rate was 1.47 per minute and the internal standard Glipizide was 1 per 9 minutes. The column was maintained at 45° C. For pentamidine and Compound 5, analysis was performed using 233 MassSpec by AB Sciex API5000 with Turbo Ion Spray interface operating in a positive ionization mode. Quantification was performed using multiple reaction monitoring (MRM) method with the transitions of (m/z) 328 à (m/z) 311 for Compound 5 and (m/z) 548 à (m/z) 366 for Edoxaban (internal standard). While, for pentamidine (m/z) 341 à (m/z) 324 and (m/z) 548 à (m/z) 366 for Verapmil (internal standard).
The gradient program for Compound 5 was as follows: 10% B (0-0.2 min), 95% B (1.5-2 min), the initial for B was 10% and it stopped at 2.6 mins. The flow rate was 0.5 mL/min. The gradient program for pentamidine was as follows: 10% B (0-0.2 min), 95% B (1.4-2 min), the initial for B was 10% and it stopped at 2.5 mins. The flow rate was 0.5 mL/min.

The subject of data set [2] is A549-NLR cells with anti-CD3 stimulated PBMC. The experiment in a line: Primary human T cell killing assay. It counts as cell-based. How it is done:
In this study, A549-NLR cells were cultured alone or with PBMC's isolated from blood of three healthy donors in the presence of anti-CD3 stimulation. […] A549 growth was quantified by enumerating NucLight+ cells and A549 apoptosis by Caspase-3/7+ expression (colocalised to NucLight signal) every 2 hours for 96 hours.
All test conditions were applied to A549-NLR cells in the presence of stimulated PBMC. The number of A549 cells was tracked by IncuCyte live cell imaging over 96 hrs. The number of A549 cells at each time-point was counted and expressed as a percentage of the starting number (on a per well basis). At each time-point, the frequency of target cell apoptosis was quantified.

pIC50: −log10 of the molar value.

One may read the microsomal CLint as the rate of metabolic loss divided by the concentration. For `N=C(N)c1cc(OCCCCCOc2ccnc(C(=N)N)c2)ccn1` [Compound 21], the microsomal CLint in the data set “Human microsomal CL rate” stood at 5.1 µL/min/mg.

What is called pIC50 is the negative decadic logarithm of the IC50, by convention in mol/L. Low values mean a high IC50, high ones a low IC50. Regarding `N=C(N)c1ccc(OCCCCCOc2ccc(C(=N)N)cn2)cc1` [Compound 2, 6-((5-(4-carbamimidoylphenoxy)pentyl)oxy)nicotinimidamide], the pIC50 with SW1271 is 5.80; with NCI-H209, 5.03; in the data set with NCI-H69, 5.46. Further, the microsomal CLint in “Human microsomal CL rate” was 9.8 µL/min/mg.

As to `N=C(N)c1ccc(OCCCCCOc2ccnc(C(=N)N)c2)cc1` [Compound 19, 4-{[5-(4-carbamimidoylphenoxy)pentyl]oxy}pyridine-2-carboximidamide], the pIC50 in the data set with SK-HEP-1 was 6.08; in the data set on HEP3B2.7-1, 6.65. This compound also yielded a microsomal CLint in the data set “Human microsomal CL rate” of 27.7 µL/min/mg.

Compound `N=C(N)c1ccc(O[C@H]2CC[C@@H](Oc3ccc(C(=N)N)nc3)CC2)cc1` [Compound 14, 5-(((1s,4s)-4-(4-carbamimidoylphenoxy)cyclohexyl)oxy)picolinimidamide] gave a pIC50 in the data set on NCI-H69 of 5.96. Also, in “Human microsomal CL rate”, the microsomal CLint came to 15.3 µL/min/mg.

Compound `N=C(N)c1ccc(CC[C@@H]2CCC[C@H](CCc3ccc(C(=N)N)nc3)C2)cc1` [Compound 18, 5-{2-[(1R,3S)-3-[2-(4-carbamimidoylphenyl)ethyl]cyclohexyl]ethyl}pyridine-2-carboximidamide] showed a microsomal CLint in “Human microsomal CL rate” of 9.5 µL/min/mg.

As for `N=C(N)c1ccc(OCCCCCOc2ccnc(C(=N)N)c2)cn1` [Compound 12, 4-((5-((6-carbamimidoylpyridin-3-yl)oxy)pentyl)oxy)picolinimidamide], the pIC50 with NCI-H69 is 5.80. Also, the intrinsic metabolic clearance (microsomal CLint) in “Human microsomal CL rate” stood at 7.5 µL/min/mg.

In turn, `N=C(N)c1cccc(OCCCCCOc2ccc(C(=N)N)nc2)c1` [Compound 11, 5-(5-(3-carbamimidoylphenoxy)pentyloxy)picolinimidamide] gave a negative logarithm of the IC50 (pIC50) in the data set on NCI-H69 of 6.21. Besides, the microsomal CLint in “Human microsomal CL rate” is 5.2 µL/min/mg.

Consider `N=C(N)c1ccc(OCCCCCOc2ccc(C(=N)N)nc2)cn1` [Compound 20, 5-({5-[(6-carbamimidoylpyridin-3-yl)oxy]pentyl}oxy)pyridine-2-carboximidamide], for which, in the data set “Human microsomal CL rate”, the intrinsic metabolic clearance (microsomal CLint) worked out at 4 µL/min/mg.

In the case of `N=C(N)c1cccc(OCCCCCOc2ccnc(C(=N)N)c2)c1` [Compound 15, 4-(5-(3-carbamimidoylphenoxy)pentyloxy)picolinimidamide], the negative logarithm of the IC50 (pIC50) in the data set on NCI-H69 was 6.31. In addition, the intrinsic metabolic clearance (microsomal CLint) in “Human microsomal CL rate” was 3.2 µL/min/mg.

For `N=C(N)c1ccc(OCCCCOc2ccc(C(=N)N)nc2)cc1` [Compound 5, 5-(4-(4-carbamimidoylphenoxy)butoxy)picolinimidamide], the “exposure to the liver vs pentamidine (20 mpk)” value in data set [1] (Compound 1 20 mpk, Compound 5 10 mpk) is “greater exposure to the liver than pentamidine”. In data set [1] (liver), the “half-life relative to Compound 1” value is “approximately 3 fold”. The half-life vs pentamidine entry in data set [1] (liver) is “higher half-life than pentamidine”. The tissue exposure result in data set [1] (liver, small intestine, ileum) was “increased exposure in the liver as well as small intestine and ileum”. The “exposure to the plasma” value in data set [1] (plasma vs other tissues) is reported as “low in comparison to other tissues”. Moreover, the pIC50 in the data set with NCI-H209 is 5.56; in the data set with NCI-H69 it was 6.06; with SK-HEP-1 it was 6.14; in the data set on HEP3B2.7-1, 6.68. The same compound returned a microsomal CLint in “Human microsomal CL rate” of 3.9 µL/min/mg.

With `N=C(N)c1ccc(OCCCCCOc2cnc(C(=N)N)cn2)cc1` [Compound 4, 5-((5-(4-carbamimidoylphenoxy)pentyl)oxy)pyrazine-2-carboximidamide], the negative-log IC50 (pIC50) in the data set with SK-HEP-1 is 5.23; in the data set on HEP3B2.7-1 it was 5.72.

Compound `N=C(N)c1cnc(OCCCCCOc2cnc(C(=N)N)cn2)cn1` [Compound 7, 5,5′-(pentane-1,5-diylbis(oxy))bis(pyrazine-2-carboximidamide)] showed a negative logarithm of the IC50 (pIC50) with NCI-H69 of 6.09. Moreover, the “immune cell-mediated A549 cell apoptosis (Caspase-3/7+)” value in data set [2] (0.3, 1 and 3 μM, three donors, 96 hours) is “enhancement of immune cell-mediated A549 cell apoptosis in 2 of 3 donors in a dose dependent manner”. The “effect compared with positive control (IL-2)” value in data set [2] (highest concentration tested (3 μM)) is “comparable effect to the positive control (IL-2)”.

As for `N=C(N)c1cccc(CCCCCCCc2cccc(C(=N)N)n2)n1` [Compound 8, 6,6′-(heptane-1,7-diyl)dipicolinimidamide], in the data set on NCI-H69, the negative logarithm of the IC50 (pIC50) is 6.16. In “Human microsomal CL rate”, the intrinsic clearance (microsomal CLint) stood at 11 µL/min/mg.

For the compound `N=C(N)c1ccc(OCCCCCOc2cnc(C(=N)N)nc2)cc1` [Compound 3, 5-((5-(4-carbamimidoylphenoxy)pentyl)oxy)pyrimidine-2-carboximidamide], the pIC50 was 5.46 with SW1271, 5.46 with NCI-H209 and 5.54 in the data set with NCI-H69.

On to `N=C(N)c1ccc(O[C@H]2CC[C@H](Oc3ccc(C(=N)N)nc3)CC2)cc1` [Compound 13, 5-(((1r,4r)-4-(4-carbamimidoylphenoxy)cyclohexyl)oxy)picolinimidamide], for which the pIC50 in the data set on NCI-H69 was 5.68. Also, in “Human microsomal CL rate”, the intrinsic clearance (microsomal CLint) was 11 µL/min/mg.

For `N=C(N)c1ccc(CCCCCCCc2ccc(C(=N)N)cn2)nc1` [Compound 10, 6,6′-(heptane-1,7-diyl)dinicotinimidamide], the pIC50 in the data set with NCI-H69 was 4.65.

The compound `N=C(N)c1ccc(OCCCCOc2ccc(C(=N)N)nc2)cn1` [Compound 16, 5,5′-(butane-1,4-diylbis(oxy))dipicolinimidamide] gave an intrinsic clearance (microsomal CLint) in “Human microsomal CL rate” of 4.6 µL/min/mg.

With `N=C(N)c1cncc(CCCCCCCc2cncc(C(=N)N)c2)c1` [Compound 9, 5,5′-(heptane-1,7-diyl)dinicotinimidamide], in the data set with NCI-H69, the pIC50 was 5.28. The same compound gave an intrinsic clearance (microsomal CLint) in “Human microsomal CL rate” of 13 µL/min/mg.

In turn, `N=C(N)c1ccc(OCCCOc2ccc(C(=N)N)nc2)cc1` [Compound 17, 5-(3-(4-carbamimidoylphenoxy)propoxy)picolinimidamide] had an intrinsic clearance (microsomal CLint) in the data set “Human microsomal CL rate” of 8.1 µL/min/mg.
